This is an account of results in ChEMBL document CHEMBL1201862, “PubChem BioAssay data set” (2004).

The nature of test [1]: blockers of HIV-1 ZM109 envelope-driven cell-cell fusion – HeLa effector, CEM target cells, luciferase, cherry-pick, dose response (AID 652058).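 Also: luciferase signal from HIV-1 Env mediated cell-cell fusion of effector and target cells.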 The test is classed as functional, cell-based.
Test [2] in a line: blockers of HIV-1 envelope-mediated cell-cell fusion – cherry-pick, dose response (AID 652057). The test is classed as functional, cell-based.
Test [3] is described as follows: off-target signal loss in HeLa-CEM21 co-culture – HeLa F-luc CTL cells, cherry-picked, counter-screen for HIV-1 Env fusion inhibitor project, dose response (AID 652040).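 Also: potency for signal decrease marking cytotoxic or nonspecific inhibition.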 The test is classed as functional, cell-based.
Test [4] can be described thus: HIV-1 AD8 envelope cell-cell fusion blockers – cherry-pick, dose response (AID 652062).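 Also: luciferase signal from cell-cell fusion driven by HIV-1 clade B AD8 Env; potency is for inhibitors of fusion seen as a drop in luminescence.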 The test is classed as functional, cell-based.
The next test addresses T1, Leucine aminopeptidase (Plasmodium falciparum 3D7, UniProt Q8IL11).
T1 sequence (Q8IL11 whole entry): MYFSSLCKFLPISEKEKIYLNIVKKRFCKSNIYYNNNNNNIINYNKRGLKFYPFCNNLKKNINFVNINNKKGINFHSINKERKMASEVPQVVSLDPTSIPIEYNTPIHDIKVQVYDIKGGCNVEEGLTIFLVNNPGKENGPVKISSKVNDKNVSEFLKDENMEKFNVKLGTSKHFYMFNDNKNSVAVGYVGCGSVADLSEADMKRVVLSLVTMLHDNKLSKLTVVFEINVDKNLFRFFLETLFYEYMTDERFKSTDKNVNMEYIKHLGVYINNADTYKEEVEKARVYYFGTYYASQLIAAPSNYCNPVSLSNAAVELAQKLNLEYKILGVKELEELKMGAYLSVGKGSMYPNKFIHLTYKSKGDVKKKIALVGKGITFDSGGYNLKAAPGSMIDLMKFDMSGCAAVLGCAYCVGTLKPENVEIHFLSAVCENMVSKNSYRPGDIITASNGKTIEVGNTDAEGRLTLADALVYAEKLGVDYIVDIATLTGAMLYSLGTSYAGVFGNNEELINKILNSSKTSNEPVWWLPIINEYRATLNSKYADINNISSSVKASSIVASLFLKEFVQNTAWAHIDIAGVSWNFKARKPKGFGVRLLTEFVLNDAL
The experiment in a line: P. falciparum M17LAP inhibitors, primary screen, biochemical, fluorogenic H-Leu-NHMec substrate, 1536-well (AID 1619). The test is classed as functional.

Test [5] is described as follows: Luminescence Cell-Based Dose Response HTS to Identify Inhibitors of 5'UTR Stem-Loop Driven Prion Protein mRNA Translation in H4 Neuroglioblastoma Cells. [Related pubchem assays: 1827 (Project Summary), 1813 (Primary HTS)]. The test is classed as functional.
For test [6], the target named is T2, Heat shock factor protein 1 (Mus musculus, UniProt P38532).
T2 sequence (P38532 whole entry): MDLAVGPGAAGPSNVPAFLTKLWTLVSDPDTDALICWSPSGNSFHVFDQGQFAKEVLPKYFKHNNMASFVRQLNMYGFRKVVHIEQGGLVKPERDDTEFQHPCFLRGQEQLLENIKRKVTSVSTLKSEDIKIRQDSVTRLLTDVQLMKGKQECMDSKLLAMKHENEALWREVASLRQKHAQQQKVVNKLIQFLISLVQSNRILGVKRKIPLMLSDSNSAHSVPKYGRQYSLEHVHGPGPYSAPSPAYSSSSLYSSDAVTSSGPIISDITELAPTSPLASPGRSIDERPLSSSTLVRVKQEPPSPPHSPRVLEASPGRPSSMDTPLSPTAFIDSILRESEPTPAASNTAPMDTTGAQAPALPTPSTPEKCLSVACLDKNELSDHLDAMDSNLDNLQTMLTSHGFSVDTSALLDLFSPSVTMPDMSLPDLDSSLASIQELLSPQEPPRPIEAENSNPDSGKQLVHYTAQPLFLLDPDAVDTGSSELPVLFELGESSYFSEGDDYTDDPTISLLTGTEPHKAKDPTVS
Description: decrease of HSF1-responsive luciferase luminescence – cell-based, NIH3T3, dose retest, confirmation (AID 2382).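 Also: NIH3T3 fibroblasts with HSF1-driven luciferase reporter stressed by proteasome inhibitor MG132; luminescence from HSF1-driven luciferase expression after 8 hours of MG132 stress.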 The test is classed as functional.

A short description of test [7]: alpha-synuclein stem-loop luciferase translation blockers – H4 neuroglioma cells, luminescence, confirmation (AID 1988). The test is classed as functional, cell-based.
Test [8] is described as follows: luciferase reporter signal suppression in cells – H4 neuroglioma cells, luminescence, dose response (AID 1990). The test is classed as functional, cell-based. In general terms: A reporter such as luciferase makes a cellular process visible.
In a further test the test system is HEK293. Description: EBV LMP1 TES2 canonical NF-kB signalling blockers – cell-based, HEK293, luciferase, cherry-pick, dose response (AID 588343). The test is classed as functional. The conditions noted are these: Homo sapiens.
Test [9] can be described thus: HEK-293T viability loss after treatment – luminescence, T-cell screen hits, cytotoxicity control for TCR NF-kB inhibitor project, dose response (AID 489026).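 Also: cells exposed to compound about 14 hours before the viability readout.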 The test is classed as functional, cell-based.
In a further test the target is Protein Wnt-3a (Mus musculus, UniProt P27467). The experiment in a line: antagonism of Wnt3a pathway luciferase reporter – Wnt-LIGHT cells, luminescence, selectivity assay for Gli-SUFU antagonist project, dose response (AID 651570).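 Also: Wnt-LIGHT reporter cells stimulated with conditioned medium from Wnt3a-producing cells.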 The test is classed as functional. The note with it: read-out: IC50_Mean.
Chain of Protein Wnt-3a (P27467 whole entry): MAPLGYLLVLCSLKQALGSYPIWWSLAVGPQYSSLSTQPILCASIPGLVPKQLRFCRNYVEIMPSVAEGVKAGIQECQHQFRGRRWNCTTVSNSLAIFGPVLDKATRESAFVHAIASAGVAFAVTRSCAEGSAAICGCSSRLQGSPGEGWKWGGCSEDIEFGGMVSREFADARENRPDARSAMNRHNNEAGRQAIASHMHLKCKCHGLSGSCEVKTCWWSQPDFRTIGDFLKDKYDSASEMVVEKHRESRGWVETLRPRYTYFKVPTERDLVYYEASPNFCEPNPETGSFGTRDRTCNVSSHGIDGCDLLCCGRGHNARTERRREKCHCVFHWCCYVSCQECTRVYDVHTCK
Another test concerns Streptococcus. Description: GAS UMAA2166 growth inhibition – luminescence, BacTiterGlo, counter-screen for streptokinase expression inhibitor project, dose response (AID 1915).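 Also: potency for reduction of bacterial viability or growth.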 The test is classed as functional, organism-based. (In general: Counterscreens check selectivity or assay interference.)
The next test has as its target T3, Streptokinase A (Streptococcus pyogenes serotype M1, UniProt P10520).
T3 sequence (P10520 whole entry): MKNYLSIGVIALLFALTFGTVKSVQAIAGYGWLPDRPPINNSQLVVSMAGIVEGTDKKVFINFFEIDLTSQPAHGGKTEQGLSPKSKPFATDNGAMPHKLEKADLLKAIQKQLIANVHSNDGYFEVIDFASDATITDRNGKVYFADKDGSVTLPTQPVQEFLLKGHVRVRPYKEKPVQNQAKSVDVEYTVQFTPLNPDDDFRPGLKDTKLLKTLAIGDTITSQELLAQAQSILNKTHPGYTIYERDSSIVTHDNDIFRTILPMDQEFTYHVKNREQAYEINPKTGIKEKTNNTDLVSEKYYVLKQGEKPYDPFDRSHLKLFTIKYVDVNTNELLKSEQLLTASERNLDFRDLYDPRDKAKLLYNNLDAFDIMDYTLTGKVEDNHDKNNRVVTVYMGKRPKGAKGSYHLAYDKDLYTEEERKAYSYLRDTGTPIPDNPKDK
Description: viability-normalized secreted streptokinase activity reduction – plasminogen activation absorbance, OD405, dose response (AID 1914).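 Also: secreted streptokinase activity via plasminogen activation per viability signal from cell pellet.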 The test is classed as functional, Streptococcus pyogenes M1 GAS.

Test [10] deals with Streptococcus sp. 'group A'. Description: Streptococcus pyogenes SK(-)GAS viability under kanamycin – luminescence, BacTiterGlo, confirmation, counter-screen for streptokinase expression inhibitor project, dose response (AID 1900). The test is classed as functional, organism-based.
Another test deals with T4, Aminopeptidase N (Plasmodium falciparum FcB1/Columbia, UniProt O96935).
T4 sequence (O96935 whole entry): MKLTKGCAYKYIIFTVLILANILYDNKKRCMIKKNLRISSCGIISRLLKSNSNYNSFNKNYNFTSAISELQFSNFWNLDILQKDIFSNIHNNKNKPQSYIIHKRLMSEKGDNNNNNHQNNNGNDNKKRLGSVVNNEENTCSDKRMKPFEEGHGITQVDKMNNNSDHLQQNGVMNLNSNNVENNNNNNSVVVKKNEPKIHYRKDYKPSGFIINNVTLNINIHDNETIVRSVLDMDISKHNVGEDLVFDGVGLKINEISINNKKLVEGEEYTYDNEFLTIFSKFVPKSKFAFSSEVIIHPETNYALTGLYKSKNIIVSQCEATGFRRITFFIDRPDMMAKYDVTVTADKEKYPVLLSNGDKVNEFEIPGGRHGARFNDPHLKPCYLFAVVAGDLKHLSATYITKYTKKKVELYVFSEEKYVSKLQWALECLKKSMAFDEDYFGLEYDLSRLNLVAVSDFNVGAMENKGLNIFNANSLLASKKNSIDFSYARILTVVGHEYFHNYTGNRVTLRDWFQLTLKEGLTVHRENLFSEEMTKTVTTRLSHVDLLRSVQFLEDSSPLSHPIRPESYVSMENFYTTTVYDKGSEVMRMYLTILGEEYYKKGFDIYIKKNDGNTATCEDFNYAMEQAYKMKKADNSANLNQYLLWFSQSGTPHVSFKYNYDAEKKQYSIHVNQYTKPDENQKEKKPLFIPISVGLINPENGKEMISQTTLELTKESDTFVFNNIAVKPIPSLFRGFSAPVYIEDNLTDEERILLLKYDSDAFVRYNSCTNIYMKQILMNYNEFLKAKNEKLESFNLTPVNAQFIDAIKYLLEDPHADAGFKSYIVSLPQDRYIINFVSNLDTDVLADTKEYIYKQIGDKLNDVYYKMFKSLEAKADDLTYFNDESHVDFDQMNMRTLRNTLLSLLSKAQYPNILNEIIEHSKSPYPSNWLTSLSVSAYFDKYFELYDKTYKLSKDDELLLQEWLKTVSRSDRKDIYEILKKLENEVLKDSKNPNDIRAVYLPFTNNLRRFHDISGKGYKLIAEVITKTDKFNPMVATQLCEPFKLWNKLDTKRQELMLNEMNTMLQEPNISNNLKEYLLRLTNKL
The experiment in a line: malaria alanyl aminopeptidase activity blockers – biochemical, fluorogenic H-Leu-NHMec substrate, 1536-well (AID 1445). The arrangement: species or system Plasmodium falciparum 3D7, 3D7.

For test [11], the target named is T5, Long-chain-fatty-acid--AMP ligase FadD28 (Mycobacterium tuberculosis, UniProt P9WQ59).
T5 sequence (P9WQ59 whole entry): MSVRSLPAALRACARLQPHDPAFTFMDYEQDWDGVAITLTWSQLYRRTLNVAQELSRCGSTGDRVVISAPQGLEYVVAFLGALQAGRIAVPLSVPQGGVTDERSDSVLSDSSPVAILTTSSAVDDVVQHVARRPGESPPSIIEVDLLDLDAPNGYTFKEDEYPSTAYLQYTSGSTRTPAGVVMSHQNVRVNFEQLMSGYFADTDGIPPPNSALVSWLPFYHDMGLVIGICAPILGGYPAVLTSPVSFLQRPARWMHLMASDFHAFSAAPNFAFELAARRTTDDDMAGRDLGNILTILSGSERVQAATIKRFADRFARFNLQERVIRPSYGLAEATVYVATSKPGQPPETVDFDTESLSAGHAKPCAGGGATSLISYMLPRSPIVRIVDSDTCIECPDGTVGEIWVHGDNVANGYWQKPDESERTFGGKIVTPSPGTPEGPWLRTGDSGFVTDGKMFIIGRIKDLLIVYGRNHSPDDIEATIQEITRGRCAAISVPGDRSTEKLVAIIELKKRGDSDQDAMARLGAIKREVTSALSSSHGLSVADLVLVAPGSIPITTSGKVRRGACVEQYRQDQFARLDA
Description: Fluorescence polarization aasay to screen for inhibitors that compete for the binding of FadD28 to a bisubstrate Measured in Biochemical System Using Plate Reader - 2147-01_Inhibitor_Dose_CherryPick_Activity. The test is classed as functional, Mycobacterium tuberculosis H37Rv. (In general: In fluorescence polarisation assays a small probe gives low polarisation when free and higher when bound to something large.)

The source made the active and inactive calls. Some results are limits rather than exact numbers.

By AC50 is commonly meant the concentration at which the activity in the assay is half-maximal. In the case of `CCCCn1c(N)c(N(CC(C)C)C(=O)c2ccc(S(=O)(=O)N(CC)c3ccccc3)cc2)c(=O)[nH]c1=O`, the AC50 was < 0.26 µM (active) in test [1], 0.402 µM (active) in test [2], 0.877 µM (active) in [3] and 2.78 µM (active) in test [4].
`Cc1n[nH]c(C)c1S(=O)(=O)N(CC(=O)NC1CCCC1)c1ccc(C(C)C)cc1`: the AC50 is 2.38 µM (active) in test [1], 3.91 µM (active) in test [2], 6.27 µM (active) in test [3] and 3.53 µM (active) in [4].
Consider `COc1cccc(/C=N/NC(=O)CC2C(=O)NN=C2C)c1O` (stereo unspecified), for which the IC50 at Leucine aminopeptidase is 92.1 µM (active). Moreover, the AC50 is 49.9 µM (active) in [2] and > 70 µM (inactive) in [3].
In general, EC50 refers to the concentration that produces a half-maximal response. `NC(=O)c1sc2nc3c(c(-c4cccs4)c2c1N)CCCCC3`: the half-maximal activity concentration (AC50) in test [1] is < 0.26 µM (active); in test [2] it was 0.743 µM (active); in [3], 1.67 µM (active); in test [4], 1.43 µM (active); in the test on HEK293, 2.27 µM (active). The EC50 in [5] was 9.4 µM (active); in test [6] it was 0.285 µM (active); in [7], 11.1 µM (active); in test [8], 16.5 µM (active).
With `Cc1nc2ccccc2c2c1CC(C(C)(Cl)Br)O2` (stereo unspecified), the IC50 is > 80 µM (inactive) in [9] and 3.82 µM (active) on Protein Wnt-3a. The concentration at half-maximal activity (AC50) in [2] is 27.6 µM (active); in test [3], > 70 µM (inactive); in test [4], 1.8 µM (active).
Turning to `COC(=O)[C@@]1(C)[C@H]2C(=O)N(Cc3ccccc3)C(=O)[C@H]2[C@H]2CN=C(SCc3ccc(Cl)cc3)N21`, the AC50 is 0.891 µM (active) in test [1]; 0.876 µM (active) in test [2]; 1.04 µM (active) in test [3]; 0.796 µM (active) in test [4]; 4.73 µM (active) in the test with HEK293.
As to `CC(=O)NS(=O)(=O)c1ccc(/N=c2\ssc3c2-c2ccc(C)cc2NC3(C)C)cc1`, the concentration giving a half-maximal response (EC50) was 12.1 µM (active) with Streptococcus, > 150 µM (not active) at Streptokinase A and 2.31 µM (active) in test [10]. The IC50 at Leucine aminopeptidase was 2.6 µM (active); on Aminopeptidase N it was 89.3 µM (active). Further, the AC50 in test [11] is > 100 µM (inactive).
